Test results taken from PubChem BioAssay AID2060500 (Molecular Pharmacology Branch, DTP, NCI, 2025).
pIC50: −log10 of the molar value.

System: 596521-263-R-J1-PDC complex spheroids, viability % of control
Assay: Anticancer human tumor 596521-263-R-J1-PDC patient-derived soft tissue sarcoma cell line growth inhibition [GQUAD]
Conditions: for pIC50: curve of first compound; for viability, T/C: stronger effect = lower value
In short: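 Multi-cell-type spheroids of tumor cells with HUVEC and mesenchymal stem cells, treated with drug combinations. Concentrations descend in half-log steps from near clinical Cmax, or from 10 microM where Cmax is unknown; viability read-out.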

[1] = second compound 0.0316 µM, first compound 0.0316 µM
[2] = second compound 0.0316 µM, first compound 0.1 µM
[3] = second compound 0.0316 µM, first compound 0.316 µM
[4] = second compound 0.0316 µM, first compound 1 µM
[5] = second compound 0.0316 µM, first compound 3.16 µM
[6] = second compound 0.0316 µM, first compound 10 µM
[7] = second compound 0.1 µM, first compound 0.0316 µM
[8] = second compound 0.1 µM, first compound 0.1 µM
[9] = second compound 0.1 µM, first compound 0.316 µM
[10] = second compound 0.1 µM, first compound 1 µM
[11] = second compound 0.1 µM, first compound 3.16 µM
[12] = second compound 0.1 µM, first compound 10 µM
[13] = second compound 0.316 µM, first compound 0.0316 µM
[14] = second compound 0.316 µM, first compound 0.1 µM
[15] = second compound 0.316 µM, first compound 0.316 µM
[16] = second compound 0.316 µM, first compound 1 µM
[17] = second compound 0.316 µM, first compound 3.16 µM
[18] = second compound 0.316 µM, first compound 10 µM
[19] = second compound 1 µM, first compound 0.0316 µM
[20] = second compound 1 µM, first compound 0.1 µM
[21] = second compound 1 µM, first compound 0.316 µM
[22] = second compound 1 µM, first compound 1 µM
[23] = second compound 1 µM, first compound 3.16 µM
[24] = second compound 1 µM, first compound 10 µM
[25] = second compound 3.16 µM, first compound 0.0316 µM
[26] = second compound 3.16 µM, first compound 0.1 µM
[27] = second compound 3.16 µM, first compound 0.316 µM
[28] = second compound 3.16 µM, first compound 1 µM
[29] = second compound 3.16 µM, first compound 3.16 µM
[30] = second compound 3.16 µM, first compound 10 µM
[31] = second compound 10 µM, first compound 0.0316 µM
[32] = second compound 10 µM, first compound 0.1 µM
[33] = second compound 10 µM, first compound 0.316 µM
[34] = second compound 10 µM, first compound 1 µM
[35] = second compound 10 µM, first compound 3.16 µM
[36] = second compound 10 µM, first compound 10 µM
[37] = second compound 0.0316 µM, first compound 0.000999 µM
[38] = second compound 0.0316 µM, first compound 0.00316 µM
[39] = second compound 0.0316 µM, first compound 0.00999 µM
[40] = second compound 0.0316 µM, first compound 0.0999 µM
[41] = second compound 0.1 µM, first compound 0.000999 µM
[42] = second compound 0.1 µM, first compound 0.00316 µM
[43] = second compound 0.1 µM, first compound 0.00999 µM
[44] = second compound 0.1 µM, first compound 0.0999 µM
[45] = second compound 0.316 µM, first compound 0.000999 µM
[46] = second compound 0.316 µM, first compound 0.00316 µM
[47] = second compound 0.316 µM, first compound 0.00999 µM
[48] = second compound 0.316 µM, first compound 0.0999 µM
[49] = second compound 1 µM, first compound 0.000999 µM
[50] = second compound 1 µM, first compound 0.00316 µM
[51] = second compound 1 µM, first compound 0.00999 µM
[52] = second compound 1 µM, first compound 0.0999 µM
[53] = second compound 3.16 µM, first compound 0.000999 µM
[54] = second compound 3.16 µM, first compound 0.00316 µM
[55] = second compound 3.16 µM, first compound 0.00999 µM
[56] = second compound 3.16 µM, first compound 0.0999 µM
[57] = second compound 10 µM, first compound 0.000999 µM
[58] = second compound 10 µM, first compound 0.00316 µM
[59] = second compound 10 µM, first compound 0.00999 µM
[60] = second compound 10 µM, first compound 0.0999 µM
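Further: spheroids exposed to drugs for 7 days before viability reading.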
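Wherever viability, T/C is given: 100% = DMSO vehicle control viability.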

## C=CC(=O)N1CCN(c2nc(=O)n(-c3c(C)ccnc3C(C)C)c3nc(-c4c(O)cccc4F)c(F)cc23)C(C)C1 (stereo not drawn) + Cc1cnc(CNC(=O)c2c(=O)c3ccc(N4CCCN(C)CC4)nc3n3c2sc2ccccc23)cn1
Second compound 0.0316 µM
  pIC50: < 5.00
Second compound 0.1 µM
  pIC50: < 5.00
Second compound 0.316 µM
  pIC50: < 5.00
Second compound 1 µM
  pIC50: < 5.00
Second compound 3.16 µM
  pIC50: < 5.00
Second compound 10 µM
  pIC50: > 7.50
[1]
  viability, T/C: 104%
[2]
  viability, T/C: 101%
[3]
  viability, T/C: 103%
[4]
  viability, T/C: 112%
[5]
  viability, T/C: 108%
[6]
  viability, T/C: 75.8%
[7]
  viability, T/C: 88.3%
[8]
  viability, T/C: 86.1%
[9]
  viability, T/C: 91.8%
[10]
  viability, T/C: 107%
[11]
  viability, T/C: 103%
[12]
  viability, T/C: 77.6%
[13]
  viability, T/C: 89.5%
[14]
  viability, T/C: 85.1%
[15]
  viability, T/C: 90.5%
[16]
  viability, T/C: 81.1%
[17]
  viability, T/C: 92.4%
[18]
  viability, T/C: 69.1%
[19]
  viability, T/C: 67.8%
[20]
  viability, T/C: 64.8%
[21]
  viability, T/C: 67%
[22]
  viability, T/C: 71.2%
[23]
  viability, T/C: 76.7%
[24]
  viability, T/C: 63.2%
[25]
  viability, T/C: 57.2%
[26]
  viability, T/C: 56.5%
[27]
  viability, T/C: 61.8%
[28]
  viability, T/C: 60%
[29]
  viability, T/C: 81.4%
[30]
  viability, T/C: 61.8%
[31]
  viability, T/C: 51.1%
[32]
  viability, T/C: 30.9%
[33]
  viability, T/C: 48.6%
[34]
  viability, T/C: 51%
[35]
  viability, T/C: 63.7%
[36]
  viability, T/C: 39.5%

## CCc1c2c(nc3ccc(O)cc13)-c1cc3c(c(=O)n1C2)COC(=O)[C@]3(O)CC + Cc1cnc(CNC(=O)c2c(=O)c3ccc(N4CCCN(C)CC4)nc3n3c2sc2ccccc23)cn1
Second compound 0.0316 µM
  pIC50: 8.06
Second compound 0.1 µM
  pIC50: 8.09
Second compound 0.316 µM
  pIC50: 8.03
Second compound 1 µM
  pIC50: 7.88
Second compound 3.16 µM
  pIC50: 8.19
Second compound 10 µM
  pIC50: > 9.00
[37]
  viability, T/C: 57.6%
[38]
  viability, T/C: 59.2%
[39]
  viability, T/C: 44.3%
[1]
  viability, T/C: 40%
[40]
  viability, T/C: 17.4%
[3]
  viability, T/C: 7.92%
[41]
  viability, T/C: 58.6%
[42]
  viability, T/C: 56.8%
[43]
  viability, T/C: 49.3%
[7]
  viability, T/C: 34.1%
[44]
  viability, T/C: 21.3%
[9]
  viability, T/C: 8.98%
[45]
  viability, T/C: 71.6%
[46]
  viability, T/C: 55.4%
[47]
  viability, T/C: 49.9%
[13]
  viability, T/C: 40.5%
[48]
  viability, T/C: 21.2%
[15]
  viability, T/C: 7.27%
[49]
  viability, T/C: 63.8%
[50]
  viability, T/C: 61.7%
[51]
  viability, T/C: 52.6%
[19]
  viability, T/C: 40.1%
[52]
  viability, T/C: 24.1%
[21]
  viability, T/C: 6.45%
[53]
  viability, T/C: 55.8%
[54]
  viability, T/C: 55%
[55]
  viability, T/C: 47.6%
[25]
  viability, T/C: 37.3%
[56]
  viability, T/C: 23.2%
[27]
  viability, T/C: 0.26%
[57]
  viability, T/C: 47.2%
[58]
  viability, T/C: 37.1%
[59]
  viability, T/C: 39.6%
[31]
  viability, T/C: 32.5%
[60]
  viability, T/C: 4.57%
[33]
  viability, T/C: 0.24%

## Cc1cccc(N(C)C(=O)C2C(O)CCN2c2nc(C)cc(C(F)(F)F)c2C#N)c1 (stereo not drawn) + Cc1cnc(CNC(=O)c2c(=O)c3ccc(N4CCCN(C)CC4)nc3n3c2sc2ccccc23)cn1
Second compound 0.0316 µM
  pIC50: < 5.00
Second compound 0.1 µM
  pIC50: < 5.00
Second compound 0.316 µM
  pIC50: < 5.00
Second compound 1 µM
  pIC50: < 5.00
Second compound 3.16 µM
  pIC50: < 5.00
Second compound 10 µM
  pIC50: 5.47
[1]
  viability, T/C: 123%
[2]
  viability, T/C: 98.5%
[3]
  viability, T/C: 106%
[4]
  viability, T/C: 98.5%
[5]
  viability, T/C: 104%
[6]
  viability, T/C: 99.3%
[7]
  viability, T/C: 87%
[8]
  viability, T/C: 87%
[9]
  viability, T/C: 93.8%
[10]
  viability, T/C: 92.4%
[11]
  viability, T/C: 86.3%
[12]
  viability, T/C: 90.9%
[13]
  viability, T/C: 74.5%
[14]
  viability, T/C: 77.9%
[15]
  viability, T/C: 81.7%
[16]
  viability, T/C: 80.6%
[17]
  viability, T/C: 85.4%
[18]
  viability, T/C: 80.6%
[19]
  viability, T/C: 63.1%
[20]
  viability, T/C: 70.7%
[21]
  viability, T/C: 60.7%
[22]
  viability, T/C: 64.7%
[23]
  viability, T/C: 68.5%
[24]
  viability, T/C: 66.3%
[25]
  viability, T/C: 64.6%
[26]
  viability, T/C: 57.9%
[27]
  viability, T/C: 62%
[28]
  viability, T/C: 52.1%
[29]
  viability, T/C: 59%
[30]
  viability, T/C: 54.4%
[31]
  viability, T/C: 50.7%
[32]
  viability, T/C: 49.8%
[33]
  viability, T/C: 49.3%
[34]
  viability, T/C: 51.8%
[35]
  viability, T/C: 51%
[36]
  viability, T/C: 41.8%

## Cn1ncnc1[C@H]1c2n[nH]c(=O)c3cc(F)cc(c23)N[C@@H]1c1ccc(F)cc1 + Cc1cnc(CNC(=O)c2c(=O)c3ccc(N4CCCN(C)CC4)nc3n3c2sc2ccccc23)cn1
Second compound 0.0316 µM
  pIC50: < 6.50
Second compound 0.1 µM
  pIC50: < 6.50
Second compound 0.316 µM
  pIC50: < 6.50
Second compound 1 µM
  pIC50: < 6.50
Second compound 3.16 µM
  pIC50: < 6.50
Second compound 10 µM
  pIC50: 6.99
[37]
  viability, T/C: 108%
[38]
  viability, T/C: 83.4%
[39]
  viability, T/C: 94.5%
[1]
  viability, T/C: 90.2%
[40]
  viability, T/C: 90.2%
[3]
  viability, T/C: 71.2%
[41]
  viability, T/C: 88.5%
[42]
  viability, T/C: 84%
[43]
  viability, T/C: 72.3%
[7]
  viability, T/C: 81.2%
[44]
  viability, T/C: 74.6%
[9]
  viability, T/C: 64.7%
[45]
  viability, T/C: 81.3%
[46]
  viability, T/C: 71.1%
[47]
  viability, T/C: 86.4%
[13]
  viability, T/C: 68.5%
[48]
  viability, T/C: 76%
[15]
  viability, T/C: 65.9%
[49]
  viability, T/C: 74.1%
[50]
  viability, T/C: 66.2%
[51]
  viability, T/C: 60.5%
[19]
  viability, T/C: 53.7%
[52]
  viability, T/C: 60%
[21]
  viability, T/C: 59.7%
[53]
  viability, T/C: 55.9%
[54]
  viability, T/C: 56.4%
[55]
  viability, T/C: 54%
[25]
  viability, T/C: 55.7%
[56]
  viability, T/C: 56.5%
[27]
  viability, T/C: 53%
[57]
  viability, T/C: 52.9%
[58]
  viability, T/C: 40.3%
[59]
  viability, T/C: 56.2%
[31]
  viability, T/C: 50.1%
[60]
  viability, T/C: 52.8%
[33]
  viability, T/C: 32.2%
